{
  "source": "patent US10364247B2",
  "about": "“Preparation and use of novel protein kinase inhibitors” (Ruijin Hospital Affiliated to Shanghai Jiao Tong University …, priority 2015, dated 2019)",
  "assay_in_all_cases": "KINOMEscan competition binding",
  "key": {"[1]": {"target": "p38-beta (Homo sapiens, UniProt Q15759)", "sequence (Q15759 whole entry)": "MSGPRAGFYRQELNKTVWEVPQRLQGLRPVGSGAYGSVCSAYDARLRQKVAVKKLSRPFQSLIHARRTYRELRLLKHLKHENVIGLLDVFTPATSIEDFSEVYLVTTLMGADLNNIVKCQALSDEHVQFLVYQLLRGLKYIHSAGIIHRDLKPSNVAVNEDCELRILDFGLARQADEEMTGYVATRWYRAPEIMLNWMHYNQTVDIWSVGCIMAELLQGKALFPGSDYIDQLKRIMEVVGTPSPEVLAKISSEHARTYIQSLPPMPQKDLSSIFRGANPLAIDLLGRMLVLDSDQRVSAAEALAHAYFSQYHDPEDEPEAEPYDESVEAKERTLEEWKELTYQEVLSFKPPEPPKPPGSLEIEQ", "settings": "p38-beta (Entrez MAPK11), read-out: Percent Control", "description": "(§1) KINOMEscan™ is based on a competition binding assay that quantitatively measures the ability of a compound to compete with an immobilized, active-site directed ligand (Fabian et al. (2005) Nat. Biotechnol. 23, 329; Karaman et al. (2008) Nat. Biotechnol. 26, 127). The compound was screened at 10 μM, and results for primary screen binding interactions are reported as ‘% Ctrl’, where lower numbers indicate stronger hits. The results for kinases targets with a % Ctrl less than 30 can be seen in Table 2."}, "[2]": {"target": "YSK4 (Homo sapiens, UniProt Q56UN5)", "settings": "read-out: Percent Control", "description": "as §1"}, "[3]": {"target": "T1, TRKB (Homo sapiens, UniProt Q16620)", "T1 construct": "purchased KINOMEscan (screening service)", "T1 sequence (Q16620 32-822)": "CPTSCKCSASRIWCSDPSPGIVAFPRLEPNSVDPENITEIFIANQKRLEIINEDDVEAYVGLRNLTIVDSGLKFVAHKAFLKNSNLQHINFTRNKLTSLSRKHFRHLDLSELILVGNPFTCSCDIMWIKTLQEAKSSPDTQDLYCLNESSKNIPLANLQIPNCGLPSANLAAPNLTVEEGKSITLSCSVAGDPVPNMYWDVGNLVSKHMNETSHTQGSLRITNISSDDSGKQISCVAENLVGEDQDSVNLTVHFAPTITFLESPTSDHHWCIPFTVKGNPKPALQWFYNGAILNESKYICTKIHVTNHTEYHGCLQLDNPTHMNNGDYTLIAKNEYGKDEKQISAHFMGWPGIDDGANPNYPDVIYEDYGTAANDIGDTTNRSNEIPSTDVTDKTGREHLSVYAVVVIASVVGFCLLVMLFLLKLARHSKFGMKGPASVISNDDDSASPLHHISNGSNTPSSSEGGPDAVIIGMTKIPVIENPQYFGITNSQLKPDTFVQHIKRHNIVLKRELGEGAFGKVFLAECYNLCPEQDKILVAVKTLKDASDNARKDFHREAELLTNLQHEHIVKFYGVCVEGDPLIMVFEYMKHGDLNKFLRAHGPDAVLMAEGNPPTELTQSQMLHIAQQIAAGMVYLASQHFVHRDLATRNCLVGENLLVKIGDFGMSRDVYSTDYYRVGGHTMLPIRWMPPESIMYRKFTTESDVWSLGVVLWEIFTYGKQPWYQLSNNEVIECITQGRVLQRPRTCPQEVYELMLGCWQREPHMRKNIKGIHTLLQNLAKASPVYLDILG", "settings": "TRKB (Entrez NTRK2), read-out: Percent Control", "description": "as §1"}, "[4]": {"target": "T2, LTK (Homo sapiens, UniProt P29376)", "T2 construct": "purchased KINOMEscan (screening platform)", "T2 sequence (P29376 17-864)": "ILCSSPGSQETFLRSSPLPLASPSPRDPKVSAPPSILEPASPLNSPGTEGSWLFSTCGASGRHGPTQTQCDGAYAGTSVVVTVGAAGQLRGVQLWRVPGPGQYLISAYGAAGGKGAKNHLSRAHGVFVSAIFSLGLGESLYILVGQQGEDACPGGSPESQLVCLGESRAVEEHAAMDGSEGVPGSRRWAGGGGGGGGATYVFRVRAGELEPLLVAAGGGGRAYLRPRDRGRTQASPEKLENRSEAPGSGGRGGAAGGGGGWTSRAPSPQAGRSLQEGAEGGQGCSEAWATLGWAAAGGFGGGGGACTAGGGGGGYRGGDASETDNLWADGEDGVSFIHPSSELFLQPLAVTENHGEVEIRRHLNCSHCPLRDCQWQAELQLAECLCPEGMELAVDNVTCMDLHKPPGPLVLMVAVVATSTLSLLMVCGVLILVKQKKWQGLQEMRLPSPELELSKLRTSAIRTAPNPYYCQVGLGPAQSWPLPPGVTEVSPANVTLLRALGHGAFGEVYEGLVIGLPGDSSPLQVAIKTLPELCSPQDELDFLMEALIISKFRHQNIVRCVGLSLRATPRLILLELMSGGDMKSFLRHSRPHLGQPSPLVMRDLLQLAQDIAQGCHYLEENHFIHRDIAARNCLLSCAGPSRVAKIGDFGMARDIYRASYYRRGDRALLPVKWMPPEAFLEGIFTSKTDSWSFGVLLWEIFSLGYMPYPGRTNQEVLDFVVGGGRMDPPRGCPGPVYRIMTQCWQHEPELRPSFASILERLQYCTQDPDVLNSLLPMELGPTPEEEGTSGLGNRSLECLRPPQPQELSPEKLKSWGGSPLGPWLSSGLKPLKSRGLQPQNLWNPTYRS", "settings": "read-out: Percent Control", "description": "as §1"}, "[5]": {"target": "T3, EPHA3 (Homo sapiens, UniProt P29320)", "T3 construct": "purchased KINOMEscan (screening service)", "settings": "read-out: Percent Control", "description": "as §1"}, "[6]": {"target": "T4, MERTK (Homo sapiens, UniProt Q12866)", "T4 construct": "purchased KINOMEscan (screening service)", "T4 sequence (Q12866 21-999)": "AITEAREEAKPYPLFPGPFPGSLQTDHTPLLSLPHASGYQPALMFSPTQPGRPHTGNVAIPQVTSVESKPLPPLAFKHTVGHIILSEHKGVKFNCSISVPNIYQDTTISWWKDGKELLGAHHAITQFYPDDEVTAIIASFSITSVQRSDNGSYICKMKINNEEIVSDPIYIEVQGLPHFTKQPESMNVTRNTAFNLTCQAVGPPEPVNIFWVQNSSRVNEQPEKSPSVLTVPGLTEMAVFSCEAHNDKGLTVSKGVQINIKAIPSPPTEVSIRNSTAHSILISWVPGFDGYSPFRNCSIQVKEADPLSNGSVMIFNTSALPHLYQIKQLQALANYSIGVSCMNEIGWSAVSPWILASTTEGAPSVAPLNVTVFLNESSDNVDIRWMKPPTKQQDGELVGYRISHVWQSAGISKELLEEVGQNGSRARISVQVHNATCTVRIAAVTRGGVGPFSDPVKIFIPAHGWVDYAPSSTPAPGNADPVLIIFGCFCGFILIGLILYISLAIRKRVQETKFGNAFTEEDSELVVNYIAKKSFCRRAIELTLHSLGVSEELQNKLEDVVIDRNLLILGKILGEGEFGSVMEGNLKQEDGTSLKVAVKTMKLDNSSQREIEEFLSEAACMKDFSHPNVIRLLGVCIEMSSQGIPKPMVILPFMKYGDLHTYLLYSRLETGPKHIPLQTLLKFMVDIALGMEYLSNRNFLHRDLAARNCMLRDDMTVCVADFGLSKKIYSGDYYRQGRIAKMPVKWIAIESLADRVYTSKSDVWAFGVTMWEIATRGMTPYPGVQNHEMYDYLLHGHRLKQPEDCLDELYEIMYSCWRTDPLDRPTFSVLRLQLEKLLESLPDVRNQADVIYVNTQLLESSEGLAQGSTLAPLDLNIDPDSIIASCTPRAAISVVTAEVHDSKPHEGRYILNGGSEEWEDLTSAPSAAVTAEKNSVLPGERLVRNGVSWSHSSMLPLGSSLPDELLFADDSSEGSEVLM", "settings": "read-out: Percent Control", "description": "as §1"}, "[7]": {"target": "MUSK (Homo sapiens, UniProt O15146)", "settings": "read-out: Percent Control", "description": "as §1"}, "[8]": {"target": "TNIK (Homo sapiens, UniProt Q9UKE5)", "settings": "read-out: Percent Control", "description": "as §1"}, "[9]": {"target": "EGFR(L861Q) (Homo sapiens, UniProt P00533, L861Q)", "settings": "read-out: Percent Control", "description": "as §1"}, "[10]": {"target": "FLT3(N841I) (Homo sapiens, UniProt P36888, N841I)", "settings": "read-out: Percent Control", "description": "as §1"}, "[11]": {"target": "T5, EPHA8 (Homo sapiens, UniProt P29322)", "T5 construct": "purchased KINOMEscan (panel service)", "settings": "read-out: Percent Control", "description": "as §1"}, "[12]": {"target": "T6, GCN2(Kin.Dom.2, S808G) (Homo sapiens, UniProt Q9P2K8, S808G)", "T6 construct": "GCN2(Kin.Dom.2, S808G)", "settings": "GCN2(Kin.Dom.2, S808G) (Entrez EIF2AK4), read-out: Percent Control", "description": "as §1"}, "[13]": {"target": "FGR (Homo sapiens, UniProt P09769)", "settings": "read-out: Percent Control", "description": "as §1"}, "[14]": {"test_system": "FLT3(ITD)", "settings": "10 μM", "description": "as §1"}, "[15]": {"target": "T7, GAK (Homo sapiens, UniProt O14976)", "T7 construct": "purchased KINOMEscan (screening service)", "settings": "read-out: Percent Control", "description": "as §1"}, "[16]": {"target": "FLT3(K663Q) (Homo sapiens, UniProt P36888, K663Q)", "settings": "read-out: Percent Control", "description": "as §1"}, "[17]": {"target": "PFCDPK1(P. falciparum) (Plasmodium falciparum, UniProt P62344)", "settings": "PFCDPK1(P. falciparum) (Entrez CDPK1), read-out: Percent Control", "description": "as §1"}, "[18]": {"target": "EGFR(G719C) (Homo sapiens, UniProt P00533, G719C)", "settings": "read-out: Percent Control", "description": "as §1"}, "[19]": {"target": "BLK (Homo sapiens, UniProt P51451)", "settings": "read-out: Percent Control", "description": "as §1"}, "[20]": {"target": "T8, FYN (Homo sapiens, UniProt P06241)", "T8 construct": "purchased KINOMEscan (panel service)", "settings": "read-out: Percent Control", "description": "as §1"}, "[21]": {"target": "T9, RIPK1 (Homo sapiens, UniProt Q13546)", "T9 construct": "purchased KINOMEscan (screening platform)", "settings": "read-out: Percent Control", "description": "as §1"}, "[22]": {"target": "PDGFRA (Homo sapiens, UniProt P16234)", "settings": "read-out: Percent Control", "description": "as §1"}, "[23]": {"target": "LOK (Homo sapiens, UniProt O94804)", "settings": "LOK (Entrez STK10), read-out: Percent Control", "description": "as §1"}, "[24]": {"target": "MAP4K2 (Homo sapiens, UniProt Q12851)", "settings": "read-out: Percent Control", "description": "as §1"}, "[25]": {"target": "KIT(V559D, V654A) (Homo sapiens, UniProt P10721, V559D/V654A)", "settings": "read-out: Percent Control", "description": "as §1"}, "[26]": {"target": "SRMS (Homo sapiens, UniProt Q9H3Y6)", "settings": "read-out: Percent Control", "description": "as §1"}, "[27]": {"target": "TNK2 (Homo sapiens, UniProt Q07912)", "sequence (Q07912 whole entry)": "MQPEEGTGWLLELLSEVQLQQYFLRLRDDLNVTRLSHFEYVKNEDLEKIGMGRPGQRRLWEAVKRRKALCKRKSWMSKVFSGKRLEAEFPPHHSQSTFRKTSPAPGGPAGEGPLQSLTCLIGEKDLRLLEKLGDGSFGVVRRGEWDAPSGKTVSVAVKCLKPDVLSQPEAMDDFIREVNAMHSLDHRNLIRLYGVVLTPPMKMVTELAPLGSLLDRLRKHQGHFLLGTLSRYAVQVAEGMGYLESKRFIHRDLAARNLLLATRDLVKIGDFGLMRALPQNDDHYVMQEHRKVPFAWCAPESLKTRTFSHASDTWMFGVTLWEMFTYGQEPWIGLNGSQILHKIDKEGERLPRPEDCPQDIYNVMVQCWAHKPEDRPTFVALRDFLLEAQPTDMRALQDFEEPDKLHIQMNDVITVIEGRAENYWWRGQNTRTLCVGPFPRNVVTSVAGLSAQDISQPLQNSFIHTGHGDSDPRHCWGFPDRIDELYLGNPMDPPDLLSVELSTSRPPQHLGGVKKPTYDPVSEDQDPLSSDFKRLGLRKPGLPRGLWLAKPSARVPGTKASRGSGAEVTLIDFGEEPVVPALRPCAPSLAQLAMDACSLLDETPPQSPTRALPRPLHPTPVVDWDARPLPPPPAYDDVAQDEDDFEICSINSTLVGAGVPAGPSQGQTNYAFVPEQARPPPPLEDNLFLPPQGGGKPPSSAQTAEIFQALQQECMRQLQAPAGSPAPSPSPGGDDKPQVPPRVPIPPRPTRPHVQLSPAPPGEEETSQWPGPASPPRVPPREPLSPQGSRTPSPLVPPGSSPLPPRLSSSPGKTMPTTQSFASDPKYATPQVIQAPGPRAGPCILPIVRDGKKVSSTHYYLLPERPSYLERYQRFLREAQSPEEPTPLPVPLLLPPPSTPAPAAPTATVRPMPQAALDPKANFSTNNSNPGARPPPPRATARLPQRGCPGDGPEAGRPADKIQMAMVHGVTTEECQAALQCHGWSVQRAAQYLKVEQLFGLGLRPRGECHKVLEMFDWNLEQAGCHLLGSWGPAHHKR", "settings": "read-out: Percent Control", "description": "as §1"}, "[28]": {"target": "T10, PIP5K1C (Homo sapiens, UniProt O60331)", "T10 construct": "purchased KINOMEscan (screening service)", "settings": "read-out: Percent Control", "description": "as §1"}, "[29]": {"target": "T11, KIT(D816V) (Homo sapiens, UniProt P10721, D816V)", "T11 construct": "purchased KINOMEscan (panel service)", "settings": "read-out: Percent Control", "description": "as §1"}, "[30]": {"target": "KIT(V559D, T670I) (Homo sapiens, UniProt P10721, T670I/V559D)", "settings": "read-out: Percent Control", "description": "as §1"}, "[31]": {"target": "T12, DRAK2 (Homo sapiens, UniProt O94768)", "T12 construct": "purchased KINOMEscan (screening service)", "settings": "DRAK2 (Entrez STK17B), read-out: Percent Control", "description": "as §1"}, "[32]": {"target": "T13, IKK-beta (Homo sapiens, UniProt O14920)", "T13 construct": "purchased KINOMEscan (screening service)", "settings": "IKK-beta (Entrez IKBKB), read-out: Percent Control", "description": "as §1"}, "[33]": {"target": "RET(M918T) (Homo sapiens, UniProt P07949, M918T)", "settings": "read-out: Percent Control", "description": "as §1"}, "[34]": {"target": "CTK (Homo sapiens, UniProt P42679)", "settings": "CTK (Entrez MATK), read-out: Percent Control", "description": "as §1"}, "[35]": {"target": "EPHB3 (Homo sapiens, UniProt P54753)", "sequence (P54753 34-998)": "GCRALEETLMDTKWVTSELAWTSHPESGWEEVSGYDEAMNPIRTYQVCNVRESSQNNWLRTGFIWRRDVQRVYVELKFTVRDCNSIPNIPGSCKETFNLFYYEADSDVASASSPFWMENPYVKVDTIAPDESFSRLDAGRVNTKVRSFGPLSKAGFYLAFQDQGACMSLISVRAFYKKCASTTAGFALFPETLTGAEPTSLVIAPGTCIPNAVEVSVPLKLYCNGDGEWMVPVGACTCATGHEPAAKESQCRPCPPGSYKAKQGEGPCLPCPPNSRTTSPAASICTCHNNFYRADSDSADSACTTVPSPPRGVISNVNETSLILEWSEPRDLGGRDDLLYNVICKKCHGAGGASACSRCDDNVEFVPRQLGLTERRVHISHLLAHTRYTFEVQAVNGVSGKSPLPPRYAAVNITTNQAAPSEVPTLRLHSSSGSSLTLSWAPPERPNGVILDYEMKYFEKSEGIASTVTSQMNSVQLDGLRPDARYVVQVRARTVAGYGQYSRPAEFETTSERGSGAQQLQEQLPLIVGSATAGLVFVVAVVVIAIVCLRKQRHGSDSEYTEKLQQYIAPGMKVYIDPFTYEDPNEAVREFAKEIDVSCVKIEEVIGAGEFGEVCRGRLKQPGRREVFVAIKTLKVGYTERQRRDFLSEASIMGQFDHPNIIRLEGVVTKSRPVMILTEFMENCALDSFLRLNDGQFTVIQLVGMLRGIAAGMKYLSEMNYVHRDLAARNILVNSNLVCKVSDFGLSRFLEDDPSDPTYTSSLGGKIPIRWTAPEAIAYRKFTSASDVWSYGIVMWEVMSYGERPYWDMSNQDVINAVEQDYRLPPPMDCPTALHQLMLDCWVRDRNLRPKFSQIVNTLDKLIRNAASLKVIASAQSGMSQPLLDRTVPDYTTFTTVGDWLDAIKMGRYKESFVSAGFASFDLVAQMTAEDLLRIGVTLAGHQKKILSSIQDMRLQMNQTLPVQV", "settings": "read-out: Percent Control", "description": "as §1"}, "[36]": {"target": "EGFR(G719S) (Homo sapiens, UniProt P00533, G719S)", "settings": "read-out: Percent Control", "description": "as §1"}},
  "data": [
    {"smiles": "Cc1ccc(Nc2ncc3c(n2)N(C)CN(c2cc(NC(=O)c4cccc(C(F)(F)F)c4)ccc2C)C3)cn1", "note": "[IA-9, N-(4-methyl-3-(1-methyl-7-((6-methylpyridin-3-yl)amino)-1,4-dihydropyrimido[4,5-d]pyrimidin-3(2H)-yl)phenyl)-3-(trifluoromethyl)benzamide]", "values": [
      {"measurement": "remaining binding at 10 µM", "setting": "[1]", "result": 0, "unit": "%"},
      {"measurement": "remaining binding at 10 µM", "setting": "[2]", "result": 0.3, "unit": "%"},
      {"measurement": "remaining binding at 10 µM", "setting": "[3]", "result": 10, "unit": "%"},
      {"measurement": "remaining binding at 10 µM", "setting": "[4]", "result": 22, "unit": "%"},
      {"measurement": "remaining binding at 10 µM", "setting": "[5]", "result": 11, "unit": "%"},
      {"measurement": "remaining binding at 10 µM", "setting": "[6]", "result": 7, "unit": "%"},
      {"measurement": "remaining binding at 10 µM", "setting": "[7]", "result": 6.8, "unit": "%"},
      {"measurement": "remaining binding at 10 µM", "setting": "[8]", "result": 4.8, "unit": "%"},
      {"measurement": "remaining binding at 10 µM", "setting": "[9]", "result": 0, "unit": "%"},
      {"measurement": "remaining binding at 10 µM", "setting": "[10]", "result": 0.55, "unit": "%"},
      {"measurement": "remaining binding at 10 µM", "setting": "[11]", "result": 0.15, "unit": "%"},
      {"measurement": "remaining binding at 10 µM", "setting": "[12]", "result": 1.3, "unit": "%"},
      {"measurement": "remaining binding at 10 µM", "setting": "[13]", "result": 0, "unit": "%"},
      {"measurement": "Percent Control", "setting": "[14]", "result": 0.55, "unit": "% Ctrl"},
      {"measurement": "remaining binding at 10 µM", "setting": "[15]", "result": 7.4, "unit": "%"},
      {"measurement": "remaining binding at 10 µM", "setting": "[16]", "result": 0.55, "unit": "%"},
      {"measurement": "remaining binding at 10 µM", "setting": "[17]", "result": 0.35, "unit": "%"},
      {"measurement": "remaining binding at 10 µM", "setting": "[18]", "result": 0, "unit": "%"},
      {"measurement": "remaining binding at 10 µM", "setting": "[19]", "result": 0.3, "unit": "%"},
      {"measurement": "remaining binding at 10 µM", "setting": "[20]", "result": 0.05, "unit": "%"},
      {"measurement": "remaining binding at 10 µM", "setting": "[21]", "result": 28, "unit": "%"},
      {"measurement": "remaining binding at 10 µM", "setting": "[22]", "result": 1.6, "unit": "%"},
      {"measurement": "remaining binding at 10 µM", "setting": "[23]", "result": 0, "unit": "%"},
      {"measurement": "remaining binding at 10 µM", "setting": "[24]", "result": 4.6, "unit": "%"},
      {"measurement": "remaining binding at 10 µM", "setting": "[25]", "result": 0.35, "unit": "%"},
      {"measurement": "remaining binding at 10 µM", "setting": "[26]", "result": 0.95, "unit": "%"},
      {"measurement": "remaining binding at 10 µM", "setting": "[27]", "result": 2.4, "unit": "%"},
      {"measurement": "remaining binding at 10 µM", "setting": "[28]", "result": 21, "unit": "%"},
      {"measurement": "remaining binding at 10 µM", "setting": "[29]", "result": 0.05, "unit": "%"},
      {"measurement": "remaining binding at 10 µM", "setting": "[30]", "result": 0.3, "unit": "%"},
      {"measurement": "remaining binding at 10 µM", "setting": "[31]", "result": 17, "unit": "%"},
      {"measurement": "remaining binding at 10 µM", "setting": "[32]", "result": 14, "unit": "%"},
      {"measurement": "remaining binding at 10 µM", "setting": "[33]", "result": 0, "unit": "%"},
      {"measurement": "remaining binding at 10 µM", "setting": "[34]", "result": 3.4, "unit": "%"},
      {"measurement": "remaining binding at 10 µM", "setting": "[35]", "result": 0, "unit": "%"},
      {"measurement": "remaining binding at 10 µM", "setting": "[36]", "result": 0, "unit": "%"}
    ]}
  ]
}
